{"source": "patent US20100074886A1", "about": "“CCR2 ANTAGONISTS FOR TREATMENT OF FIBROSIS” (priority 2006, published 2010)", "key": {"[1]": {"tested_on": "fibrotic fibroblasts (UIP patients)", "test": "Profibrotic gene expression (real time PCR) after 24 hrs stimulation of fibrotic fibroblasts", "type": "cell-based, human", "details": "for IL13Ra2 gene expression (FIG. 7B): fibroblasts, cell type not given; for CTGF gene expression (FIG. 5): fibrotic (UIP) fibroblasts; for aSMA expression (FIG. 2) / increase in aSMA expression / TGFb1 gene expression (FIG. 4): fibrotic fibroblasts; for increase in aSMA expression: vs unstimulated", "description": "(§1) Cell lines were provided by Dr Cory Hogaboam at the University of Michigan. All of the primary fibroblast lines were isolated as previously described (Hogaboam et al. 1999 J Immunol 163(4):2193-201). Pulmonary fibroblasts were isolated from lung biopsies taken from UIP patients (n=4) and these are referred to as “fibrotic fibroblasts”. Fibroblasts were also isolated from lung tissue taken during lung tumor resection (n=5) and these samples were confirmed to be non-fibrotic by histological analysis. These non-fibrotic tissue derived fibroblasts are referred to as “non-fibrotic fibroblasts”.\n(§2) Human lung fibroblasts were plated into 24 well plates (Costar, Corning, N.Y.) at 100,000 cells/well and allowed to adhere for 8 hours. The cells were then washed with PBS and cultured overnight in serum free media (DMEM with 1-Glutamine, Pen/Strep). Cells were then stimulated for 24 hrs in the presence or absence of TGFb-1 (1 or 10 ng/mL), PDGF-AB (20 or 200 ng/mL) or CCL2 (1 or 10 ng/mL). TGFb1, PDGF-AB and CCL2 were purchased from R&D Systems. Supernatants were removed and RNA was subsequently isolated using RNeasy Plus Mini-Kits (QIAGEN, Valencia, Calif.) as per manufacturer's instructions and RNA was reverse transcribed into cDNA using TaqManâ Reverse Transcription Reagents (Applied Biosystems, Foster City, Calif.). Profibrotic gene expression was determined by real time PCR using the Taqmanâ Universal PCR Master Mix (Applied Biosystems) and pre-developed Taqmanâ Gene Expression Assays (Applied Biosystems) as per manufacture's instructions.\n(§3) Quantitative gene expression was calculated using the comparative CT method, where CT values are determined as the threshold cycle number for which gene expression is first detected. Fold changes in gene expression for the genes of interest were first normalized to the housekeeping gene 18S, giving ACT values. Fold changes in expression between fibrotic and non-fibrotic fibroblasts were calculated as: ΔCT(non-fibrotic)−ΔCT(fibrotic)=ΔΔCT, where the non-fibrotic gene expression served as the calibrator. Fold changes in gene expression due to in vitro stimulation were calculated by ΔΔCT=ΔCT(unstimulated)−ΔCT(stimulated), where the unstimulated sample served as calibrator. The calculation 2-ΔΔCT then gives a relative value for final fold change when compared to calibrator."}, "[2]": {"tested_on": "non-fibrotic fibroblasts", "test": "Profibrotic gene expression (real time PCR) after 24 hrs stimulation of non-fibrotic fibroblasts", "type": "cell-based, human", "description": "as §1, §2, §3"}}, "data": [{"substance": "PDGF: platelet-derived growth factor alpha/beta; purchased from R&D Systems, used as fibroblast stimulus", "values": [{"measurement": "IL13Ra1 gene expression (FIG. 7A)", "setting": "[1]; UIP fibroblasts", "value": "upregulated"}, {"measurement": "IL13Ra2 gene expression (FIG. 7B)", "setting": "[1]", "value": "upregulated"}, {"measurement": "CTGF gene expression (FIG. 5)", "setting": "[1]", "value": "induced an increase"}, {"measurement": "aSMA expression (FIG. 2)", "setting": "[1]", "value": "modest increase"}, {"measurement": "increase in aSMA expression", "setting": "[1]", "value": "less than 10 fold"}, {"measurement": "aSMA expression (FIG. 2)", "setting": "[2]", "value": "only in the fibrotic fibroblasts"}]}, {"substance": "CCL2: CC-chemokine ligand 2, Monocyte Chemoattractant Protein 1; purchased from R&D Systems, used as fibroblast stimulus", "values": [{"measurement": "IL13Ra1 gene expression (FIG. 7A)", "setting": "[1]; UIP fibroblasts", "value": "upregulated"}, {"measurement": "TGFbRII gene expression (FIG. 6B)", "setting": "[1]; UIP fibroblasts", "value": "somewhat greater increase in TGFbRII"}, {"measurement": "procollagen I gene expression (FIG. 3A)", "setting": "[1]; UIP fibroblasts", "value": "induces"}, {"measurement": "procollagen III gene expression (FIG. 3B)", "setting": "[1]; UIP fibroblasts", "value": "induces"}, {"measurement": "IL13Ra2 gene expression (FIG. 7B)", "setting": "[1]", "value": "upregulated"}, {"measurement": "CTGF gene expression (FIG. 5)", "setting": "[1]", "value": "induced an increase"}, {"measurement": "TGFb1 gene expression (FIG. 4)", "setting": "[1]", "value": "enhances TGFb1 gene expression"}, {"measurement": "aSMA expression (FIG. 2)", "setting": "[1]", "value": "induced an increase"}, {"measurement": "increase in aSMA expression", "setting": "[1]", "value": "more than 10 fold"}, {"measurement": "aSMA expression (FIG. 2)", "setting": "[2]", "value": "only induced an increase in aSMA expression in fibrotic fibroblasts"}]}, {"substance": "TGFb1: transforming growth factor beta-1; purchased from R&D Systems, used as fibroblast stimulus", "values": [{"measurement": "IL13Ra1 gene expression (FIG. 7A)", "setting": "[1]; UIP fibroblasts", "value": "upregulated"}, {"measurement": "TGFbRI gene expression (FIG. 6A)", "setting": "[1]; UIP fibroblasts", "value": "greater effect on TGFbRI"}, {"measurement": "IL13Ra2 gene expression (FIG. 7B)", "setting": "[1]", "value": "upregulated"}, {"measurement": "CTGF gene expression (FIG. 5)", "setting": "[1]", "value": "induced an increase"}, {"measurement": "TGFb1 gene expression (FIG. 4)", "setting": "[1]", "value": "increased TGFβ1"}, {"measurement": "aSMA expression (FIG. 2)", "setting": "[1]", "value": "induced aSMA"}, {"measurement": "CTGF gene expression (FIG. 5)", "setting": "[2]", "value": "induced an increase"}, {"measurement": "TGFb1 gene expression (FIG. 4)", "setting": "[2]", "value": "increased TGFβ1"}, {"measurement": "aSMA expression (FIG. 2)", "setting": "[2]", "value": "induced aSMA"}]}]}
